From patent US20010034342A1, “Substituted urea and isothiourea derivatives as no synthase inhibitors” (priority 1993, published 2001)

How the values were obtained:
Human brain NOS = molecular target: T1, Human brain NOS (Homo sapiens, UniProt P29475); test: Human brain NOS enzyme activity assay; type: biochemical
T1 construct: Purification of NOS from human brain; from tissue; host or cells: frozen human brain
Procedure: The mixture was centrifuged at 13,000 g for 1 hour and the supernatant was removed (about 2050 ml). […] The precipitate was pelleted at 13,000 g for 30 minutes and the pellet was resuspended in −400 mls of buffer A with 4 μM tetrahydrobiopterin, 1 μm FAD (Sigma), 1 μM FMN (Sigma). The solution was centrifuged at 41,000 g for 60 minutes. The supernatant was removed, frozen by pouring into liquid nitrogen, and stored overnight at −70° C. The mixture was thawed and passed through a 2′,5′ ADP-agarose column (0.4 g swelled in buffer A) at 4 ml/min. The column was washed with 100 ml buffer A, 200 ml buffer A with 500 mM NaCl, 100 ml Buffer A, then 30 ml buffer A with 5 mM NADPH. […] To the enzyme was added tetrahydrobiopterin to 10 μM, FAD and FMN to 1 μM, and tween to 0.1%. This solution was concentrated by centriprep-30 to a volume of approximately 500 μl. Human NOS was prepared completely analogously except the calmodulin-agarose column was not used.

human placental NOS = molecular target: T2, human placental NOS (Homo sapiens, UniProt P29474); test: Assay for human placental NOS (citrulline formation); type: biochemical; conditions: concentration not given
T2 construct: Purification of NOS from human placenta; from tissue; host or cells: fresh human placenta

inducible human NOS = molecular target: T3, inducible human NOS (Homo sapiens, UniProt P35228); test: Assay for inducible human NOS (citrulline formation), enzyme from cytokine-induced DLD-1 cells; type: biochemical; conditions: concentration not given
T3 construct: Purification of NOS cytokine-induced human colorectal adenocarcinoma DLD-1 cells; endogenous in cells; host or cells: DLD-1 (ATCC No. CCL 221), induced with IFN-gamma, IL-6, TNF and IL-1beta
T3 sequence (P35228 whole entry): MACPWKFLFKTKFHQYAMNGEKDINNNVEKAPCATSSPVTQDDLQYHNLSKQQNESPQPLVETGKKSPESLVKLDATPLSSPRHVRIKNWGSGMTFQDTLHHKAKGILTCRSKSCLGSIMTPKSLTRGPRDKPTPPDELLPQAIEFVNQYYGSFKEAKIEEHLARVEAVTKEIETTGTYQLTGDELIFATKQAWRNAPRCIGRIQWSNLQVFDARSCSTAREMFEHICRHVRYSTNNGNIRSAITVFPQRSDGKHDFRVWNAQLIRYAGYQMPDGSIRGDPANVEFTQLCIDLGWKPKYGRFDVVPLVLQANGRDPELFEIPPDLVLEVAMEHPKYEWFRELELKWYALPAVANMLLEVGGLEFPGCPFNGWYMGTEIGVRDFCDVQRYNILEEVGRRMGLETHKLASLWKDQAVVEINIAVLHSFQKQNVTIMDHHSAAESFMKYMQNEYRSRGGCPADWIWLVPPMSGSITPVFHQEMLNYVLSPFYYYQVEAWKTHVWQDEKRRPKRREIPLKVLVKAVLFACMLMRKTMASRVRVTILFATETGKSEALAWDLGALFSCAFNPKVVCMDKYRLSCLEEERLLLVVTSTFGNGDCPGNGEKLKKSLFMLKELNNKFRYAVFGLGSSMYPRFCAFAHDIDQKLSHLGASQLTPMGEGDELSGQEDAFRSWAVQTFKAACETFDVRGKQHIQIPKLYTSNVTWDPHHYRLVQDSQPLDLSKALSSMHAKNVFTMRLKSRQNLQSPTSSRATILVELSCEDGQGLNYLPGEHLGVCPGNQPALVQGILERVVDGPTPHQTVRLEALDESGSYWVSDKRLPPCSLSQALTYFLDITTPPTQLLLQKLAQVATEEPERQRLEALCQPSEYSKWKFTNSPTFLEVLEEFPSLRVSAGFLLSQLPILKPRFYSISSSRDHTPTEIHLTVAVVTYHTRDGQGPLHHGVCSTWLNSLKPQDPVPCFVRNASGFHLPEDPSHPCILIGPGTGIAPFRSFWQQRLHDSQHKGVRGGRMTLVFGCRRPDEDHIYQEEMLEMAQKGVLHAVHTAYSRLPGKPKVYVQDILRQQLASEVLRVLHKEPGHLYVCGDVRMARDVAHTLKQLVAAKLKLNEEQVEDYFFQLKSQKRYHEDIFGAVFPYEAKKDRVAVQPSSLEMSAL

T2 sequence (P29474 2-1203): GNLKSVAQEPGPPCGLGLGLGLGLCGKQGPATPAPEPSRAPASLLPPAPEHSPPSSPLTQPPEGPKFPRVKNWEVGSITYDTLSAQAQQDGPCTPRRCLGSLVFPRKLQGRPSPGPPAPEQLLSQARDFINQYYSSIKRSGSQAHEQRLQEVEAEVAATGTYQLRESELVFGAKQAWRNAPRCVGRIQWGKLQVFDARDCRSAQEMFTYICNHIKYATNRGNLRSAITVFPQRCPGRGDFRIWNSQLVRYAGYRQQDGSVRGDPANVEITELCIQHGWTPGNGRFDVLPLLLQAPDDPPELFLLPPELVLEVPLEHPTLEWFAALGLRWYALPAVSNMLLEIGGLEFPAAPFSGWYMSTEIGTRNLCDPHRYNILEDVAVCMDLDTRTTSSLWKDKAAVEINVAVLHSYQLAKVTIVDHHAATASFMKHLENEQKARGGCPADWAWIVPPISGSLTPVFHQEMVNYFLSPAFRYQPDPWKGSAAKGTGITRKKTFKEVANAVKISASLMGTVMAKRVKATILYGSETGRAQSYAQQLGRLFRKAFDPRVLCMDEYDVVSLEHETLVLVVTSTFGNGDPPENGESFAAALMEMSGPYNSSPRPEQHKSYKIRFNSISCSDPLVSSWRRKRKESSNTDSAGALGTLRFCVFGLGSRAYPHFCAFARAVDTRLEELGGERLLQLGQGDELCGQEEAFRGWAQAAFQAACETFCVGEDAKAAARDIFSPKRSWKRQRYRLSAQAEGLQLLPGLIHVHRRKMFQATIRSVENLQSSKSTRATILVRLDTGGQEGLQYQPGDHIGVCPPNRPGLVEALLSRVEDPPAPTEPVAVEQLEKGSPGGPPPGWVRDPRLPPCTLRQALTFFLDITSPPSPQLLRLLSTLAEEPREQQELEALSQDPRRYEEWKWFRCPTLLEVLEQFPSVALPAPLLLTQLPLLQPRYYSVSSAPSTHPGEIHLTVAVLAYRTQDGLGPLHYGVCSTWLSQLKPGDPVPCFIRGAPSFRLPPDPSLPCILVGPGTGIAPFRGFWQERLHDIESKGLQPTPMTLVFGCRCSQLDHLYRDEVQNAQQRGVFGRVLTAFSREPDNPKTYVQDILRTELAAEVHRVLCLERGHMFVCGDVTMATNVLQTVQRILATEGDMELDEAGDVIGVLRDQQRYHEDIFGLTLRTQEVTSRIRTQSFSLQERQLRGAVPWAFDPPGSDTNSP
T1 sequence (P29475 whole entry): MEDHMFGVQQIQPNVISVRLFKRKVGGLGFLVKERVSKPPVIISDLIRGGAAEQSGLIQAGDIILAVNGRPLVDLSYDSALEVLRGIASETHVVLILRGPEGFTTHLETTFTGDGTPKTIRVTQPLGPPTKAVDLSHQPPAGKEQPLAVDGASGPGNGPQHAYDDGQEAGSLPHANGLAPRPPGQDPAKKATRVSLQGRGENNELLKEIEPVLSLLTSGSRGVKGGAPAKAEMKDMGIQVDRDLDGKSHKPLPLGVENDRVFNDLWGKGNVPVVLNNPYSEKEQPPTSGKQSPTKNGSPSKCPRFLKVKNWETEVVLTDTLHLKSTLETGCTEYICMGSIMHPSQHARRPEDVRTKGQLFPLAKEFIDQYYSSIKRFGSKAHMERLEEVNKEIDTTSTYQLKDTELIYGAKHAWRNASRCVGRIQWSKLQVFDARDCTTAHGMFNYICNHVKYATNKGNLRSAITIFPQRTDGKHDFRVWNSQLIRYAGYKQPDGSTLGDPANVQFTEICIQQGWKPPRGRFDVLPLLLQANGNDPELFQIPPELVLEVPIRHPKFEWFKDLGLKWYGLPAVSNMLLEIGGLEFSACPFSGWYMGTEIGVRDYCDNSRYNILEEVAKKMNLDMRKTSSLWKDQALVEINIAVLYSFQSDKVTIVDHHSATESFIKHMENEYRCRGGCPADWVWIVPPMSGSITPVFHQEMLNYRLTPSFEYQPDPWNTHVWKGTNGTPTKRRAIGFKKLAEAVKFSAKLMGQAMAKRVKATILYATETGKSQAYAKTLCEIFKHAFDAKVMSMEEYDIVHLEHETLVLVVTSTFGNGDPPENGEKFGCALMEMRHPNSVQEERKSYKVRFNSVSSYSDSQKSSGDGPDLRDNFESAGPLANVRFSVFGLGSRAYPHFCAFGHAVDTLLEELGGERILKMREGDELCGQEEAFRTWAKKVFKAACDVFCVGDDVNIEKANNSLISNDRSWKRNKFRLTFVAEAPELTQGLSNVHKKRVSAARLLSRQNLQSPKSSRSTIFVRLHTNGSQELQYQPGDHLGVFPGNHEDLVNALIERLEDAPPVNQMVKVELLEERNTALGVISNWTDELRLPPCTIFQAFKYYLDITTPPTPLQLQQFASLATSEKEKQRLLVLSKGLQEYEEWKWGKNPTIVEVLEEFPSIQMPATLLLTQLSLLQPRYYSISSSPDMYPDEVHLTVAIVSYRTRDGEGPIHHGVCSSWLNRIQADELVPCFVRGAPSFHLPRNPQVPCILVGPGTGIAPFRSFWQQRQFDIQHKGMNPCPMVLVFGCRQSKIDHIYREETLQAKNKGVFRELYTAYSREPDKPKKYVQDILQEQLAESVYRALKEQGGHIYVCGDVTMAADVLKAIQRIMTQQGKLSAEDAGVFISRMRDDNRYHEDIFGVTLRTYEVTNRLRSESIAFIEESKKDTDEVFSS

Structure (SMILES) | inhibition at 25 µM (Human brain NOS; @ 25 μM inhibitor, read-out: Human Brain, percent (inhibition) @ 25 μM) | Human Placental, percent (inhibition), concentration not given (human placental NOS) | Human Inducible, percent (inhibition), concentration not given (inducible human NOS) | melting point | Human Brain, percent (inhibition), concentration not given (Human brain NOS; concentration not given)
N=C(Nc1ccc(C(F)(F)F)cc1)SCc1ccccc1 [Example 2A, S-Benzyl-N-[4-(trifluoromethyl)phenyl]isothiourea] | 11% | 0% | 0% | 71 to 72 °C | –
COC(=N)Nc1ccc(C(F)(F)F)cc1 [Example 3, O-Methyl-N-(4-(trifluoromethyl)phenyl)isourea] | – | 14% | 4% | 121 to 123 °C | 24%
